Counter-ions that a name gives are not always drawn. Like-named read-outs stand apart in the source and are kept apart here.
Experiments:
[1] = test system: DNA synthesis in L1210 cells; assay: Inhibition of DNA synthesis (incorporation of tritiated 3H-thymidine) in cultured L1210 cells; type: cell-based; conditions: Mus musculus
Protocol: (§1) Also presented in the table are the results of in vitro tests using cultured L1210 cells in which the activity of each chemical enumerated in the following table is presented in relation to its potency as an inhibitor of nucleic acid synthesis. Data for daunomycin and adriamycin are also included in the table for the sake of comparison. More specifically, the inhibition of the synthesis of DNA and RNA by each compound was measured as a function of its activity in inhibiting incorporation of tritiated ^3 H-thymidine or ^3 H-uridine into DNA and RNA, respectively. ED50 represents the concentration, in micromolar units, which inhibits incorporation of 50% of tritiated ^3 H-thymidine or ^3 H-uridine into the DNA and RNA of the test cells.
(§2) ^a ΔTm and Ed50 values were determined by the method of G.
(§3) Tong, W. W. Lee, D. R. Black, and D. W. Henry, J. Med. Chem., 19, 395
(§4) (1976), except that the drugs were initially dissolved in a volume of DMS
(§5) the assay medium. This modification greatly aided solubilization and did
(§6) not affect assay results, according to extensive control experiments.

[2] = test system: RNA synthesis in L1210 cells; assay: Inhibition of RNA synthesis (incorporation of tritiated 3H-uridine) in cultured L1210 cells; type: cell-based; conditions: for Nucleic Acid Syn Inhibn, ED50 ratio DNA/RNA: ED50 DNA divided by ED50 RNA; for IC50: Mus musculus
Protocol: as §1, §2, §3, §4, §5, §6

[3] = test system: P388 lymphocytic leukemia; assay: Antitumor activity in mice (P388, qd 5,9,13); type: in vivo; conditions: ip; for T/C (P388, qd 5,9,13): at optimal dose, days 5, 9, 13, ratio of average survival times treated/untreated, active if T/C ≥ 120; for Opt. Dose (P388, qd 5,9,13): days 5, 9, 13
Protocol: (§7) As indicated above, the compounds of the present invention have improved antitumor activity. This is evidenced by the data given below. In one operation, conducted in accordance with Protocol 1200 set forth in Cancer Chemotherapy Reports, National Cancer Institute, Vol. 3, No. 2, Part 3, September 1972, healthy mice were inoculated i.p. with Limphocytic Leukemia P-388 ascitic fluid. The inoculated mice were then treated i.p. for the succeeding 9 day period with varying amounts of the test chemicals of Example 2 while others of the mice were similarly inoculated with adrimycin hydrochloride and with daunomycin hydrochloride, the dosage pattern being set forth in the table given below. The average survival times of the treated mice was then determined, as was that of the control mice, which were inoculated with the ascitic fluid but given no treatment with the test chemicals. Presented in the following table under the T/C column headings are data obtained by dividing the survival time of the treated mice with that of the control mice, the quotient so obtained being multiplied by 100.
(§8) ^b Assays arranged through Drug Research and Development Program,
(§9) Division of Cancer Treatment, National Cancer Institute. BDF or CDF mice
(§10) are injected ip with […] P388 lymphocytic leukemia cells on Day 0
(§11) and are treated ip on Days 1-9 or days 5, 9, 13 with the specified drug
(§12) dose. For detailed protocols see R. I. Geran, N. H. Greenberg, M. M.
(§13) MacDonald, A. M. Schumacher, and B. J. Abbott, Cancer Chemother. Rep.,
(§14) ^c Ratio of average survival times of treated mice to untreated
(§15) controls in percent. The average survival time of untreated controls is
(§16) approximately 11 days. Activity is defined as values of T/C ≥ 120
(§17) in the qd 5, 9, 13 protocol and T/C ≥ 125 in the qd 1-9 protocol.

ΔTm = type: binding; conditions: drugs initially dissolved in DMSO; final DMSO 5%
Protocol: as §2, §3, §4, §5, §6

[4] = test system: P388 lymphocytic leukemia; assay: Antitumor activity in mice (P388, qd 1-9); type: in vivo; conditions: ip; for T/C (P388, qd 1-9): at optimal dose, days 1-9, ratio of average survival times treated/untreated, active if T/C ≥ 125; for Opt. Dose (P388, qd 1-9): days 1-9
Protocol: as §7, §8, §9, §10, §11, §12, §13, §14, §15, §16, §17

[5] = L1210, read-out: Nucleic Acid Syn Inhibn, ED50 DNA
[6] = L1210, read-out: Nucleic Acid Syn Inhibn, ED50 RNA

Row | SMILES | IC50 [1, 5] [nM] | Nucleic Acid Syn Inhibn, ED50 ratio DNA/RNA ([2]; L1210 cells) | IC50 [2, 6] [nM] | T/C (P388, qd 5,9,13) [3] [%] | Opt. Dose (P388, qd 5,9,13) [3] [mg/kg] | ΔTm (ΔTm) [°C] | T/C (P388, qd 1-9) [4] [%] | Opt. Dose (P388, qd 1-9) [4] [mg/kg] | IC50 ([1]; L1210 cells, 3H-thymidine incorporation, 50% inhibition, final DMSO 1%, read-out: Nucleic Acid Syn Inhibn, ED50 DNA) [nM] | IC50 ([2]; L1210 cells, 3H-uridine incorporation, 50% inhibition, final DMSO 1%, read-out: Nucleic Acid Syn Inhibn, ED50 RNA) [nM]
1 | COc1cccc2c1C(=O)c1c(O)c3c(c(O)c1C2=O)C[C@@](O)(C(=O)CO)C[C@@H]3O[C@H]1C[C@H](N)[C@H](O)[C@H](C)O1 [Adriamycin hydrochloride] | 1500 | 2.6 | 580 | 159 | 8 | 13.4 | 197 | 0.78 |  | 
2 | COc1cccc2c1C(=O)c1c(O)c3c(c(O)c1C2=O)C[C@@](O)(C(C)=O)C[C@@H]3O[C@H]1C[C@H](N)[C@H](O)[C@H](C)O1 [Daunomycin hydrochloride] | 660 |  | 330 | 132 | 8 |  | 160 | 0.78 |  | 
3 | COc1cccc2c1C(=O)c1c(O)c3c(c(O)c1C2=O)C[C@@](O)(C(O)CO)C[C@@H]3O[C@H]1C[C@H](N2CCCCC2)[C@H](O)[C@H](C)O1 (stereo partly drawn) [N,N-Pentamethylene-13-dihydroadriamycin] | 720 | 7.2 | 100 | 143 | 18 | 12.5 | 157 | 1.56 |  | 
4 | COc1cccc2c1C(=O)c1c(O)c3c(c(O)c1C2=O)C[C@@](O)(C(=O)CO)C[C@@H]3O[C@H]1C[C@H](N2CCCCC2)[C@H](O)[C@H](C)O1 [N,N-Pentamethyleneadriamycin] |  | 17.5 |  | 155 | 9.4 | 15.4 | 190 | 3.13 | 700 | 40
